From patent US10894798B2, “Substituted dihydropyrrolopyrazole derivative” (UBE INDUSTRIES, LTD., priority 2015, dated 2021)

Legend:
[1] = test system: human large intestine cancer cell line (HCT-116); experiment: Human large intestine cancer (HCT-116) cell growth inhibition test; format: cell-based; conditions: HCT-116, 72 h, culture for 3 days, sulforhodamine B, read-out: GI50 value, HCT-116 cell growth inhibition
Summary of the method: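 HCT-116 cells were seeded at 0.5 to 2.0×10^3 cells/well in McCoy's 5A with 10% FBS and dosed with compound at 0.1% final DMSO after overnight culture. Growth was measured by sulforhodamine B absorbance after 3 days. GI50 was calculated from the inhibition rate at each concentration.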

CDK7 = biological target: T1, CDK7 (Homo sapiens, UniProt P50613); experiment: CDK7 enzyme inhibition test; format: biochemical; conditions: [γ-33P]ATP, MBP substrate, 60 min preincubation at 25°C; Ki=IC50/(1+S/Km); read-out: Ki value of CDK7 inhibitory activity
T1 construct: purchased Carna Biosciences, Inc. 04-108
Summary of the method: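 Commercial human CDK7 with myelin basic protein substrate in HEPES pH 7.4 buffer with DTT, Triton X-100, MgCl2; compound preincubated 60 min at 25° C, then reaction run 20 min at 30° C after adding [γ-^33P]ATP (500 μM solution). TCA-precipitated ^33P-MBP counted by scintillation; IC50 converted to Ki via Ki=IC50/(1+S/Km).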

CDK2 = biological target: T2, CDK2 (Homo sapiens, UniProt P24941); experiment: CDK2 enzyme inhibition test; format: biochemical; conditions: [γ-33P]ATP, MBP substrate; Ki=IC50/(1+S/Km); read-out: Ki value of CDK2 inhibitory activity
T2 construct: purchased Invitrogen Corp. PV3267
Summary of the method: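 Commercial CDK2 phosphorylated MBP with [γ-33P]ATP (500 μM solution before mixing) in HEPES pH 7.4 buffer with DTT, Triton X-100 and MgCl2 for 20 min at 30 °C. TCA-precipitated 33P-MBP was counted by scintillation to give the IC50. Ki = IC50/(1+S/Km), with S the ATP concentration in the reaction.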

[2] = test system: human large intestine cancer cell (HCT 116) tumor; experiment: Tumor growth inhibition test in HCT 116-subcutaneously transplanted nude mouse; format: in vivo; conditions: dose of 100 mg/kg, repeated oral administration, HCT-116 in female BALB nude mice, control group = 100%, read-out: rate of suppression of tumor volume
Description: A human large intestine cancer cell line (HCT-116) was cultured in a McCoy's 5A medium containing 10% FBS and 1% penicillin/streptomycin/amphotericin B and adjusted to 1.0×10^8 cells/mL with PBS or Hanks solution (HBSS(−)). The prepared cell suspension was subcutaneously injected at 0.1 mL/mouse to the right abdomens of female BALB nude mice (supplied by Charles River Laboratories Japan, Inc.). After rearing for a certain period, the long diameter (mm) and short diameter (mm) of tumor were measured with electronic calipers, and the tumor volume was calculated according to the following expression: Tumor volume (mm^3)=(Long diameter)×(Short diameter)×(Short diameter)×0.5
Individuals whose tumor volume was within the range of 50 to 200 mm^3 were selected and grouped such that the tumor volume was almost equivalent, then a test compound or only a solvent was orally administered in a repeated manner, and the body weights and tumor volume were measured. A test compound was suspended in a 0.5 w/v % aqueous methylcellulose solution (0.5% MC) (manufactured by Wako Pure Chemical Industries, Ltd.) and orally administered at 10 mL/kg in a repeated manner. When the tumor volume of the control group was defined as 100%, the rate of suppression of tumor volume (%) at each dose of the test compound was calculated.

PLK1 = biological target: T3, PLK1 (Homo sapiens, UniProt P53350); experiment: PLK1 enzyme (polo-like kinase) inhibition test; format: biochemical; conditions: [γ-33P]ATP, casein substrate; Ki=IC50/(1+S/Km); read-out: Ki value of PLK1 inhibitory activity
T3 construct: purchased Carna Biosciences, Inc. 05-157
Summary of the method: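 Recombinant PLK1 phosphorylates casein with [γ-^33P]ATP in MOPS buffer (pH 7.0) containing DTT and magnesium acetate, 20 min at 30° C. Reaction stopped with TCA; washed precipitate counted by liquid scintillation. IC50 for inhibition of ^33P incorporation into casein, converted to Ki via Ki=IC50/(1+S/Km).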

T1 sequence (P50613 whole entry): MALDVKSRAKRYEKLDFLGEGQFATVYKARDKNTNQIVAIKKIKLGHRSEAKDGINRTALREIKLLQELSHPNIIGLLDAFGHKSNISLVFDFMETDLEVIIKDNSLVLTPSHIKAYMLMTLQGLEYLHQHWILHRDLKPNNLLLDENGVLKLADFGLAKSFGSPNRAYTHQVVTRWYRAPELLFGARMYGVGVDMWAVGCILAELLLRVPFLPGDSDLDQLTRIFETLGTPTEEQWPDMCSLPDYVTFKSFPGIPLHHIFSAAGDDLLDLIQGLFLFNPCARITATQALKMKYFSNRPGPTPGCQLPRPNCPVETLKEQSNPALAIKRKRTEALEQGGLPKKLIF
T1 sequence (P51946 whole entry partner): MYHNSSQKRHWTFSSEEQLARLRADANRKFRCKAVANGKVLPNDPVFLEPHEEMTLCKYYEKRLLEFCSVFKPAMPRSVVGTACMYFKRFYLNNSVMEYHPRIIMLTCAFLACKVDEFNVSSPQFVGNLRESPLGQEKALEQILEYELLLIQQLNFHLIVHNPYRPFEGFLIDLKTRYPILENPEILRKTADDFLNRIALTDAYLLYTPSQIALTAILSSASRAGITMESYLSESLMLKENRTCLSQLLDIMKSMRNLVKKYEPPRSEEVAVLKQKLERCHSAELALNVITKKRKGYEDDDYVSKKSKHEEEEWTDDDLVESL
T1 sequence (P51948 whole entry partner): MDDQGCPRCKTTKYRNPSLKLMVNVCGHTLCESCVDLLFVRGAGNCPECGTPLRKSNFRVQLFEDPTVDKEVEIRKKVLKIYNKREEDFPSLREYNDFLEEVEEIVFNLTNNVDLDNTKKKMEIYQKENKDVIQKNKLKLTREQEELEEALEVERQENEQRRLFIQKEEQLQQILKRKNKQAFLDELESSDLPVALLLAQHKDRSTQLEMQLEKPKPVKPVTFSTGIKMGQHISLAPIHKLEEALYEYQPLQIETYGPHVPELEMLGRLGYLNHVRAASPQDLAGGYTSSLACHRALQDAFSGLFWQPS
T3 sequence (P53350 whole entry): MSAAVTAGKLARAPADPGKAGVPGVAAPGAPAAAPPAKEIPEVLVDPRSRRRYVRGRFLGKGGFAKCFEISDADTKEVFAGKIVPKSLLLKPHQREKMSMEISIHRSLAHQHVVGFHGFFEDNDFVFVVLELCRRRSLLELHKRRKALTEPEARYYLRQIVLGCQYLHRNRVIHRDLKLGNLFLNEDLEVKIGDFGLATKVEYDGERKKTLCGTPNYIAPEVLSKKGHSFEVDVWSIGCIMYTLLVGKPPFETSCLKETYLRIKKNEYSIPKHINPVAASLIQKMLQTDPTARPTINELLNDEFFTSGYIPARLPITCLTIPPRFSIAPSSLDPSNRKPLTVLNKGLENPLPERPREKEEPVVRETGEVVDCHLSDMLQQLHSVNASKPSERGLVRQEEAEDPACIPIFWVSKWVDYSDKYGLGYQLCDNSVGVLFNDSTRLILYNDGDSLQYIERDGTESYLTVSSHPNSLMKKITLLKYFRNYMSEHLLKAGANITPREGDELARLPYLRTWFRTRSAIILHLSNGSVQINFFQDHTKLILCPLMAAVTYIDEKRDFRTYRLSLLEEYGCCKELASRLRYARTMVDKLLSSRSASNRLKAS

SMILES | GI50 [1] [nM] | Ki (CDK7) [nM] | Ki (CDK2) [nM] | Ki (PLK1) [nM] | inhibition in vivo at 100 mg/kg [2] [%]
CC1(C)c2[nH]nc(NC(=O)C3([Si](C)(C)C)CCC3)c2CN1C(=O)Nc1ccccc1 [IV-1, 6,6-Dimethyl-N-phenyl-3-[1-(trimethylsilyl)cyclobutanecarboxamido]-4,6-dihydropyrrolo[3,4-c]pyrazole-5(1H)-carboxamide] | ≤ 100 | ≤ 50 | ≥ 1000 | – | ≥ 50
CC1(C)c2[nH]nc(NC(=O)C3([Si](C)(C)C)CCC3)c2CN1C(=O)Nc1c(F)cccc1Br [IV-121, N-(2-Bromo-6-fluorophenyl)-6,6-dimethyl-3-[1-(trimethylsilyl)cyclobutanecarboxamido]-4,6-dihydropyrrolo[3,4-c]pyrazole-5 (1H)-carboxamide] | ≤ 100 | ≤ 50 | – | ≥ 5000 | ≥ 50
Cc1ccc(Cl)c(NC(=O)N2Cc3c(NC(=O)C4([Si](C)(C)C)CCC4)n[nH]c3C2(C)C)c1F [IV-629, N-(6-Chloro-2-fluoro-3-methylphenyl)-6,6-dimethyl-3-[1-(trimethylsilyl)cyclobutanecarboxamido]-4,6-dihydropyrrolo[3,4-c]pyrazole-5(1H)-carboxamide] | ≤ 100 | ≤ 50 | ≥ 1000 | ≥ 5000 | –
CC1(C)c2[nH]nc(NC(=O)C3([Si](C)(C)C)CCC3)c2CN1C(=O)Nc1c(Cl)cc(F)cc1Cl [IV-709, N-(2,6-Dichloro-4-fluorophenyl)-6,6-dimethyl-3-[1-(trimethylsilyl)cyclobutanecarboxamido]-4,6-dihydropyrrolo[3,4-c]pyrazole-5(1H)-carboxamide] | ≤ 100 | ≤ 50 | ≥ 1000 | ≥ 5000 | –
CC1(C)c2[nH]nc(NC(=O)C3([Si](C)(C)C)CCC3)c2CN1C(=O)Nc1cccs1 [IV-1043, 6,6-Dimethyl-N-(thiophen-2-yl)-3-[1-(trimethylsilyl)cyclobutanecarboxamido]-4,6-dihydropyrrolo[3,4-c]pyrazole-5(1H)-carboxamide] | ≤ 100 | ≤ 50 | ≥ 1000 | ≥ 5000 | –

Now from value to compound, other results behind:

GI50 [1] [nM] | Ki (CDK7) [nM] | Ki (CDK2) [nM] | Ki (PLK1) [nM] | SMILES | inhibition in vivo at 100 mg/kg [2] [%]
≤ 100 | ≤ 50 | ≥ 1000 | ≥ 5000 | COc1ccc(C)c(F)c1NC(=O)N1Cc2c(NC(=O)C3([Si](C)(C)C)CCC3)n[nH]c2C1(C)C [IV-689, N-(2-Fluoro-6-methoxy-3-methylphenyl)-6,6-dimethyl-3-[1-(trimethylsilyl)cyclobutanecarboxamido]-4,6-dihydropyrrolo[3,4-c]pyrazole-5(1H)-carboxamide] | –
≤ 100 | ≤ 50 | ≥ 1000 | ≥ 5000 | Cc1ccc(F)c(NC(=O)N2Cc3c(NC(=O)C4([Si](C)(C)C)CCC4)n[nH]c3C2(C)C)c1Cl [IV-703, N-(2-Chloro-6-fluoro-3-methylphenyl)-6,6-dimethyl-3-[1-(trimethylsilyl)cyclobutanecarboxamido]-4,6-dihydropyrrolo[3,4-c]pyrazole-5(1H)-carboxamide] | –
≤ 100 | ≤ 50 | ≥ 1000 | ≥ 5000 | Cc1ccc(F)c(Cl)c1NC(=O)N1Cc2c(NC(=O)C3([Si](C)(C)C)CCC3)n[nH]c2C1(C)C [IV-747, N-(2-Chloro-3-fluoro-6-methylphenyl)-6,6-dimethyl-3-[1-(trimethylsilyl)cyclobutanecarboxamido]-4,6-dihydropyrrolo[3,4-c]pyrazole-5(1H)-carboxamide] | –
≤ 100 | ≤ 50 | ≥ 1000 | ≥ 5000 | CC1(C)c2[nH]nc(NC(=O)C3([Si](C)(C)C)CCC3)c2CN1C(=O)Nc1c(F)ccc2c1OCC2 [IV-997, N-(6-Fluoro-2,3-dihydrobenzofuran-7-yl)-6,6-dimethyl-3-[1-(trimethylsilyl)cyclobutanecarboxamido]-4,6-dihydropyrrolo[3,4-c]pyrazole-5(1H)-carboxamide] | –
≤ 100 | ≤ 50 | ≥ 1000 | ≥ 5000 | CC1(C)c2[nH]nc(NC(=O)C3([Si](C)(C)C)CCC3)c2CN1C(=O)Nc1ccsc1 [IV-1045, 6,6-Dimethyl-N-(thiophen-3-yl)-3-[1-(trimethylsilyl)cyclobutanecarboxamido]-4,6-dihydropyrrolo[3,4-c]pyrazole-5(1H)-carboxamide] | –
≤ 100 | ≤ 50 | ≥ 1000 | ≥ 5000 | Cc1cc2ccc(F)c(NC(=O)N3Cc4c(NC(=O)C5([Si](C)(C)C)CCC5)n[nH]c4C3(C)C)c2o1 [IV-1059, N-(6-Fluoro-2-methylbenzofuran-7-yl)-6,6-dimethyl-3-[1-(trimethylsilyl)cyclobutanecarboxamido]-4,6-dihydropyrrolo[3,4-c]pyrazole-5(1H)-carboxamide] | –
≤ 100 | ≤ 50 | ≥ 1000 | ≥ 5000 | Cc1coc2c(NC(=O)N3Cc4c(NC(=O)C5([Si](C)(C)C)CCC5)n[nH]c4C3(C)C)c(F)ccc12 [IV-1061, N-(6-Fluoro-3-methylbenzofuran-7-yl)-6,6-dimethyl-3-[1-(trimethylsilyl)cyclobutanecarboxamido]-4,6-dihydropyrrolo[3,4-c]pyrazole-5(1H)-carboxamide] | –
